One compound from publication doi:10.1101/2023.02.25.530034v1 (biorxiv, 2023) can be followed below.

The target in one assay is T1, rhBCAT1 (Homo sapiens, UniProt P54687).
T1 sequence (P54687 1-386): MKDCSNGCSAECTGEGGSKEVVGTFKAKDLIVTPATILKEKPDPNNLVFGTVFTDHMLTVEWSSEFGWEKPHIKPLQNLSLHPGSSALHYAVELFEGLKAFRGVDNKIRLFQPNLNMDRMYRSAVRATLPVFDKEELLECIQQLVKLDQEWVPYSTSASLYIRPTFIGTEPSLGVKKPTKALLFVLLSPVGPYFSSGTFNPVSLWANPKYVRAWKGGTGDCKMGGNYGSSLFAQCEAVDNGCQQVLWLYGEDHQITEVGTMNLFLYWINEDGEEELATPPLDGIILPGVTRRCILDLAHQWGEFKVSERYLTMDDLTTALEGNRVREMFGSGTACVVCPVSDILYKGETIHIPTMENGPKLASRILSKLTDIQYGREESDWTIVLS
The assay is described as follows: aminotransferase activity assay with leucine dehydrogenase. It is filed as biochemical.

For a further assay, the target named is T2, rhBCAT2 (Homo sapiens, UniProt O15382).
T2 sequence (O15382 28-392): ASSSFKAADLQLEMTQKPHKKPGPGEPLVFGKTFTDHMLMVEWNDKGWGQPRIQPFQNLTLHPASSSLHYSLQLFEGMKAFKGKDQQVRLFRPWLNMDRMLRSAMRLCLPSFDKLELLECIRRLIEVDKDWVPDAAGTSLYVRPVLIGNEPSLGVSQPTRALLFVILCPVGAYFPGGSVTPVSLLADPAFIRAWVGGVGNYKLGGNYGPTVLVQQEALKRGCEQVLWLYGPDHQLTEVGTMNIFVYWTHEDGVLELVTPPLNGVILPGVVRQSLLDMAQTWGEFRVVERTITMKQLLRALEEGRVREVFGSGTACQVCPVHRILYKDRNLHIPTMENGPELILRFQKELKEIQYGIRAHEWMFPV
The assay is described as above. It is filed as biochemical.

With `O=C(O)CCC(C(=O)c1ccc(Br)cc1)c1ccccc1` (centres unmarked) [ERG245], the IC50 at rhBCAT1 was approximately 0.5 nM; on rhBCAT2, more than 1000 nM.

For orientation: IC50 means the concentration that gives 50% inhibition. A higher IC50 goes with lower potency.
